Assay results published in the supplement of paper PMC4862054.

Experiments:
Details in all cases: incubation time: 72 h
CAL-148 [1] = test: normalised response (% of control), CellTiter-Glo; higher = more viable cells (100 = DMSO, 0 = benzethonium chloride kill control)
Procedure, shortened: (§1)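 Compound was dispensed into 384-well plates at 5 concentrations in 10-fold steps spanning a 10,000-fold range specific to that compound. Breast cancer cell lines were added as 20 µl suspension and left for 72 h before CellTox Green fluorescence (485/520 nm) and then CellTiter-Glo luminescence, read after 10 min at room temperature. Each reported value is the normalised signal at one concentration, with 0.1 % DMSO set at 100 and a positive kill control at 0 on each plate.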

HDQ-P1 [2] = test: as above
Procedure, shortened: as §1

HCC1937 [3] = test: as above
Procedure, shortened: as §1

BT-474 [4] = test: as above
Procedure, shortened: as §1

HCC1143 [5] = test: as above
Procedure, shortened: as §1

MFM-223 [6] = test: as above
Procedure, shortened: as §1

CAL-120 [7] = test: as above
Procedure, shortened: as §1

MDA-MB-468 [8] = test: as above
Procedure, shortened: as §1

CAL-51 [9] = test: as above
Procedure, shortened: as §1

MCF-10A = test: as above
Procedure, shortened: as §1

MDA-MB-436 [10] = test: as above
Procedure, shortened: as §1

CAL-85-1 [11] = test: as above
Procedure, shortened: as §1

MDA-MB-453 [12] = test: as above
Procedure, shortened: as §1

SK-BR-3 [13] = test: as above
Procedure, shortened: as §1

HCC1599 [14] = test: as above
Procedure, shortened: as §1

MDA-MB-231 [15] = test: as above
Procedure, shortened: as §1

Hs578T [16] = test: as above
Procedure, shortened: as §1

DU-4475 [17] = test: as above
Procedure, shortened: as §1

BT-549 [18] = test: as above
Procedure, shortened: as §1

CAL-148 [19] = test: normalised viability (% of control), CellTiter-Blue; higher = more viable cells (100 = DMSO, 0 = benzethonium chloride kill control)
Protocol: (§2)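 DSRT, CellTiter-Blue viability, 72 h incubation. Signal is normalised to DMSO and benzethonium chloride controls. Value is the normalised response at dose 1.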

HDQ-P1 [20] = test: as above
Protocol: as §2

HCC1937 [21] = test: as above
Protocol: as §2

BT-474 [22] = test: as above
Protocol: as §2

HCC1143 [23] = test: as above
Protocol: as §2

MFM-223 [24] = test: as above
Protocol: as §2

CAL-120 [25] = test: as above
Protocol: as §2

MDA-MB-468 [26] = test: as above
Protocol: as §2

CAL-51 [27] = test: as above
Protocol: as §2

MDA-MB-436 [28] = test: as above
Protocol: as §2

CAL-85-1 [29] = test: as above
Protocol: as §2

MDA-MB-453 [30] = test: as above
Protocol: as §2

SK-BR-3 [31] = test: as above
Protocol: as §2

HCC1599 [32] = test: as above
Protocol: as §2

MDA-MB-231 [33] = test: as above
Protocol: as §2

Hs578T [34] = test: as above
Protocol: as §2

DU-4475 [35] = test: as above
Protocol: as §2

BT-549 [36] = test: as above
Protocol: as §2

Which results are given for C[C@]1(c2nc3c(C(N)=O)cccc3[nH]2)CCCN1 [Veliparib] (1 nM)?
normalised response (CAL-148 [1]): 103%; normalised response (HDQ-P1 [2]): 101%; normalised response (HCC1937 [3]): 96.8%; normalised response (BT-474 [4]): 107%; normalised response (HCC1143 [5]): 101%; normalised response (MFM-223 [6]): 101%; normalised response (CAL-120 [7]): 97.3%; normalised response (MDA-MB-468 [8]): 111%; normalised response (CAL-51 [9]): 92.2%; normalised response (MCF-10A): 97%; normalised response (MDA-MB-436 [10]): 91.4%; normalised response (CAL-85-1 [11]): 111%; normalised response (MDA-MB-453 [12]): 109%; normalised response (SK-BR-3 [13]): 102%; normalised response (HCC1599 [14]): 96.4%; normalised response (MDA-MB-231 [15]): 102%; normalised response (Hs578T [16]): 101%; normalised response (DU-4475 [17]): 106%; normalised response (BT-549 [18]): 104%; normalised viability (CAL-148 [19]): 101%; normalised viability (HDQ-P1 [20]): 75.1%; normalised viability (HCC1937 [21]): 77.1%; normalised viability (BT-474 [22]): 89.8%; normalised viability (HCC1143 [23]): 79.1%; normalised viability (MFM-223 [24]): 94.1%; normalised viability (CAL-120 [25]): 68.6%; normalised viability (MDA-MB-468 [26]): 97.7%; normalised viability (CAL-51 [27]): 112%; normalised viability (MDA-MB-436 [28]): 93.7%; normalised viability (CAL-85-1 [29]): 78.4%; normalised viability (MDA-MB-453 [30]): 93.3%; normalised viability (SK-BR-3 [31]): 96.9%; normalised viability (HCC1599 [32]): 83.5%; normalised viability (MDA-MB-231 [33]): 94.3%; normalised viability (Hs578T [34]): 94.8%; normalised viability (DU-4475 [35]): 99%; normalised viability (BT-549 [36]): 112%

How did the normalised response (CAL-148 [1]) turn out when CO[C@H]1C[C@@H]2CC[C@@H](C)[C@@](O)(O2)C(=O)C(=O)N2CCCC[C@H]2C(=O)O[C@H]([C@H](C)C[C@@H]2CC[C@@H](OC(=O)C(C)(CO)CO)[C@H](OC)C2)CC(=O)[C@H](C)/C=C(\C)[C@@H](O)[C@@H](OC)C(=O)[C@H](C)C[C@H](C)/C=C/C=C/C=C/1C [Temsirolimus] (0.1 nM) was run?
Its normalised response is 99.7%.

What about the normalised response (HDQ-P1 [2]) of the same molecule?
Its normalised response is 101%.

What about the normalised response (HCC1937 [3]) of the same molecule?
Its normalised response is 91.1%.

What about the normalised response (BT-474 [4]) of the same molecule?
The normalised response was 104%.

And the normalised response (HCC1143 [5])?
Its normalised response is 102%.

What about the normalised response (MFM-223 [6]) of the same molecule?
The normalised response was 103%.

And the normalised response (CAL-120 [7])?
Its normalised response is 97.5%.

What about the normalised response (MDA-MB-468 [8]) of the same molecule?
The normalised response was 88.6%.

What about the normalised response (CAL-51 [9]) of the same molecule?
The normalised response was 106%.

What about the normalised response (MCF-10A) of the same molecule?
The normalised response was 104%.

What about the normalised response (MDA-MB-436 [10]) of the same molecule?
The normalised response was 103%.

What about the normalised response (CAL-85-1 [11]) of the same molecule?
The normalised response was 100%.

What about the normalised response (MDA-MB-453 [12]) of the same molecule?
Its normalised response is 104%.

And the normalised response (HCC1599 [14])?
Its normalised response is 89.3%.

What about the normalised response (MDA-MB-231 [15]) of the same molecule?
Its normalised response is 101%.

What about the normalised response (Hs578T [16]) of the same molecule?
The normalised response was 88.2%.

And the normalised response (DU-4475 [17])?
The normalised response was 104%.

And the normalised response (BT-549 [18])?
The normalised response was 86.6%.

What about the normalised viability (CAL-148 [19]) of the same molecule?
Its normalised viability is 96.1%.

And the normalised viability (HDQ-P1 [20])?
Its normalised viability is 105%.

And the normalised viability (HCC1937 [21])?
Its normalised viability is 55.3%.

What about the normalised viability (BT-474 [22]) of the same molecule?
The normalised viability was 95%.

What about the normalised viability (HCC1143 [23]) of the same molecule?
Its normalised viability is 94.1%.

What about the normalised viability (MFM-223 [24]) of the same molecule?
The normalised viability was 77.8%.

What about the normalised viability (CAL-120 [25]) of the same molecule?
Its normalised viability is 86.7%.

What about the normalised viability (MDA-MB-468 [26]) of the same molecule?
The normalised viability was 93.5%.

What about the normalised viability (CAL-51 [27]) of the same molecule?
The normalised viability was 98.3%.

What about the normalised viability (MDA-MB-436 [28]) of the same molecule?
The normalised viability was 92.4%.

What about the normalised viability (CAL-85-1 [29]) of the same molecule?
Its normalised viability is 79.7%.

And the normalised viability (MDA-MB-453 [30])?
The normalised viability was 88.1%.

And the normalised viability (SK-BR-3 [31])?
The normalised viability was 92.6%.

And the normalised viability (HCC1599 [32])?
The normalised viability was 99.8%.

What about the normalised viability (MDA-MB-231 [33]) of the same molecule?
Its normalised viability is 83.6%.

What about the normalised viability (Hs578T [34]) of the same molecule?
Its normalised viability is 86.6%.

And the normalised viability (DU-4475 [35])?
Its normalised viability is 99.3%.

What about the normalised viability (BT-549 [36]) of the same molecule?
Its normalised viability is 92.8%.
